Measurements from ChEMBL document CHEMBL1201862, “PubChem BioAssay data set” (2004).
Active and inactive are the calls of the source.

How the values were obtained:
[1] = cytotoxicity in MITF-independent A375 cells – cell-based, CellTiter-Glo luminescence, dry powder, set 4, counter-screen for MITF inhibitor project, dose response (AID 624364); assay type: functional; conditions: A-375;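 further: A375 melanoma cells are MITF independent so this is a counter screen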
[2] = MITF Orthogonal Assay: MALME3 CTG Assay Measured in Cell-Based System Using Plate Reader - 2084-04_Inhibitor_Dose_DryPowder_Activity_Set6.; assay type: functional; conditions: MALME-3
[3] = growth inhibition of MALME3 cells – cell-based, CellTiter-Glo luminescence, dry powder, set 5, orthogonal assay for MITF inhibitor project, dose response (AID 651584); assay type: functional; conditions: MALME-3
[4] = target: T1, Orexin/Hypocretin receptor type 1 (Homo sapiens, UniProt O43613); test: Homogeneous Time Resolved Fluorescence (HTRF)-based cell-based high throughput dose response assay for antagonists of the orexin 1 receptor (OX1R; HCRTR1). [Related pubchem assays (depositor defined):AID434989, AID435008, AID463079, AID485270, AID492963, AID492964, AID492965, AID493232, AID504717, AID504718]; assay type: functional;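 further: antagonism measured against Orexin-A challenge at about its EC80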
T1 sequence (O43613 whole entry): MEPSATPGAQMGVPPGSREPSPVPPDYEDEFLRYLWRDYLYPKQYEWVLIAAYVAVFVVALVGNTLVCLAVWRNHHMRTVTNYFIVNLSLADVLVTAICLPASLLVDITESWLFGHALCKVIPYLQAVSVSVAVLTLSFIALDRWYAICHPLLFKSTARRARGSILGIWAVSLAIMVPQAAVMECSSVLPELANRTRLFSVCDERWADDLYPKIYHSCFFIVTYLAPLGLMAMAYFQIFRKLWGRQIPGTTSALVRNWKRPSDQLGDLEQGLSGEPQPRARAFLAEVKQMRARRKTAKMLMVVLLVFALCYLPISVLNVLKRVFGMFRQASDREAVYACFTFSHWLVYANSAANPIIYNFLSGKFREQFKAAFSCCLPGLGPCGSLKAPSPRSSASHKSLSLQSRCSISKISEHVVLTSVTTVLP

Nonstructural protein 1 = Nonstructural protein 1 (Influenza A virus, UniProt Q194T2); assay type: functional, Influenza A virus (A/California/07/2009(H1N1))
[5] = system: Streptococcus sp. 'group A'; test: Streptococcus pyogenes SK(-)GAS viability under kanamycin – luminescence, BacTiterGlo, confirmation, counter-screen for streptokinase expression inhibitor project, dose response (AID 1900); assay type: functional, organism-based
[6] = target: Tyrosine-protein kinase Lck (Homo sapiens, UniProt P06239); assay type: functional;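 further: lck was assayed as one member of a kinase panel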
[7] = target: Cyclin-dependent kinase 1 (Homo sapiens, UniProt P06493); assay type: functional;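 further: Kinome-wide panel profiling, with the target listed as panel member CDC2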
[8] = target: Death-associated protein kinase 3 (Homo sapiens, UniProt O43293); assay type: functional;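 further: measured as one member of a kinome-wide profiling panel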
[9] = target: Casein kinase II subunit alpha (Homo sapiens, UniProt P68400); assay type: functional
Sequence of Casein kinase II subunit alpha (P68400 whole entry): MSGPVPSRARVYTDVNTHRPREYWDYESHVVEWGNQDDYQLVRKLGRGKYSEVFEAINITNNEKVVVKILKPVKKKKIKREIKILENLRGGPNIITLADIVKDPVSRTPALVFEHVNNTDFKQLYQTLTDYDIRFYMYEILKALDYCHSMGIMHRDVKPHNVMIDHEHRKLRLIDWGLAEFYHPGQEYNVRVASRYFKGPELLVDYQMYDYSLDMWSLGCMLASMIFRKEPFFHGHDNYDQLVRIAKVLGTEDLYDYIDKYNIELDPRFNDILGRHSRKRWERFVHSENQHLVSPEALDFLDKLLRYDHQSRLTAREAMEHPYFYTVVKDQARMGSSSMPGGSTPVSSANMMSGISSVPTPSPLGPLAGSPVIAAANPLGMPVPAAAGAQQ

[10] = target: Leucine-rich repeat serine/threonine-protein kinase 2 (Homo sapiens, UniProt Q5S007); assay type: functional;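 further: value from a broad kinome-wide panel profiling study in which LRRK2 was one of the kinases tested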
Sequence of Leucine-rich repeat serine/threonine-protein kinase 2 (Q5S007 whole entry): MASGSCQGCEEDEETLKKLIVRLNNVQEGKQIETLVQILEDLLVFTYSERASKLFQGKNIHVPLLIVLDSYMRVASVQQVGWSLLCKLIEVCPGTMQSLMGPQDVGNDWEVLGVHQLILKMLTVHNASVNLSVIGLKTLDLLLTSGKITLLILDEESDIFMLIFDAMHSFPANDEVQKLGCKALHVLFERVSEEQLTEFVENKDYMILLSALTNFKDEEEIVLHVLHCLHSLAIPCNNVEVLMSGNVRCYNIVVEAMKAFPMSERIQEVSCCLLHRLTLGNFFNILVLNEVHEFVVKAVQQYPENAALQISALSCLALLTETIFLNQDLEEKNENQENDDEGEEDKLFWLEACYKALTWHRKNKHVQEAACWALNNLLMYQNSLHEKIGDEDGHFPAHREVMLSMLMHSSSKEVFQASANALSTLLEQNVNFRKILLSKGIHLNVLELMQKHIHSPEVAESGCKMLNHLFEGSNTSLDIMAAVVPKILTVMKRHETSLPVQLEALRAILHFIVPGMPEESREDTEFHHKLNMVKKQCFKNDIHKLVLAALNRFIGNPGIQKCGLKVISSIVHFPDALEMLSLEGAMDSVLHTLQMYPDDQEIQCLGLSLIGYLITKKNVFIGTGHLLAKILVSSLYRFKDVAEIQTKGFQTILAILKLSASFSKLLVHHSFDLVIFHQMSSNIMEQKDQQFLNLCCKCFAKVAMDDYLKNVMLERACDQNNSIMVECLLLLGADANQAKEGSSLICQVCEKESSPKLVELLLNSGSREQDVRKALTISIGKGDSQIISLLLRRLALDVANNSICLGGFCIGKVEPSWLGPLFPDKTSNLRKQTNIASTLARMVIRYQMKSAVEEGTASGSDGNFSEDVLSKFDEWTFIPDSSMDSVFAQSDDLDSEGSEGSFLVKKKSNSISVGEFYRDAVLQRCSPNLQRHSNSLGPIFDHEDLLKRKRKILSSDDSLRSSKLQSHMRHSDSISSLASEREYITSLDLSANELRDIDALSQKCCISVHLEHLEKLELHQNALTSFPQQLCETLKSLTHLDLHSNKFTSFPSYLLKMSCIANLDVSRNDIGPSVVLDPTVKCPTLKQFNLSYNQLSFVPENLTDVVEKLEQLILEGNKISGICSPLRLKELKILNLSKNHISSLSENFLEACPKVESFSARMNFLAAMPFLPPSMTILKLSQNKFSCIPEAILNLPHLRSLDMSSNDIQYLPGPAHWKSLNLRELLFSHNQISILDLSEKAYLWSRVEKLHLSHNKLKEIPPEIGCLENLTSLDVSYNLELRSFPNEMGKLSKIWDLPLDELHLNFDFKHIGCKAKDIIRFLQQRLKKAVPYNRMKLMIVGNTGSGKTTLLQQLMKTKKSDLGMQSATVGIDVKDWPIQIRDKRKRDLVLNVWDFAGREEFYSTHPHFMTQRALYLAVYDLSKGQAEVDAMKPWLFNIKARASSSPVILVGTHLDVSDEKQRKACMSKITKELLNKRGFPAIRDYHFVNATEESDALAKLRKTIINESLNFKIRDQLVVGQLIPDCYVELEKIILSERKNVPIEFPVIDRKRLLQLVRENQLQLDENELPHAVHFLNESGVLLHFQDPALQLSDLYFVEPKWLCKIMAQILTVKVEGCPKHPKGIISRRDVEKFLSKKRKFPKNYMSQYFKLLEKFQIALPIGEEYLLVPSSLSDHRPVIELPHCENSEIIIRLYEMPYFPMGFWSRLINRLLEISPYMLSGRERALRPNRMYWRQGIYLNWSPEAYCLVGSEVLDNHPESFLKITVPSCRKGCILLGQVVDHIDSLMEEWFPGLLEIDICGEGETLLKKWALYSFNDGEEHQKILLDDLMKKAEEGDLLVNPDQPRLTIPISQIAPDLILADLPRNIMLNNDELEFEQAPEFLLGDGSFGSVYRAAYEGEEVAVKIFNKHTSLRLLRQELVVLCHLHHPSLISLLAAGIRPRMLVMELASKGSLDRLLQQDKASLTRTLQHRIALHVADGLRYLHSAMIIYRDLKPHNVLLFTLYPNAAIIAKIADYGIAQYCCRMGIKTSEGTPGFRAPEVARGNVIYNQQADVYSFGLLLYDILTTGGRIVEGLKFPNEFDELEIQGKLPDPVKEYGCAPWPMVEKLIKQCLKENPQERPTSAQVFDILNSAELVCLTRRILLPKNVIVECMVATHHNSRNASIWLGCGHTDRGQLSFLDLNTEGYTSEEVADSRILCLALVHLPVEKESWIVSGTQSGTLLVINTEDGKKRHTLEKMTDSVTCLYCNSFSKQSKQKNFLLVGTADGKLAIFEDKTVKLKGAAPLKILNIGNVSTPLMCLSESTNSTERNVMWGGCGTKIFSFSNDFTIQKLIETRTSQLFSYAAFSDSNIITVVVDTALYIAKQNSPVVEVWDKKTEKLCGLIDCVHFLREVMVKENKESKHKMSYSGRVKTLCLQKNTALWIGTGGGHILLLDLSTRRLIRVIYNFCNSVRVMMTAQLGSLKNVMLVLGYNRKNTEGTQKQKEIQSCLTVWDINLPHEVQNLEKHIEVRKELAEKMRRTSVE

[11] = target: 5'-AMP-activated protein kinase catalytic subunit alpha-1 (Homo sapiens, UniProt Q13131); assay type: functional
Sequence of 5'-AMP-activated protein kinase catalytic subunit alpha-1 (Q13131 whole entry): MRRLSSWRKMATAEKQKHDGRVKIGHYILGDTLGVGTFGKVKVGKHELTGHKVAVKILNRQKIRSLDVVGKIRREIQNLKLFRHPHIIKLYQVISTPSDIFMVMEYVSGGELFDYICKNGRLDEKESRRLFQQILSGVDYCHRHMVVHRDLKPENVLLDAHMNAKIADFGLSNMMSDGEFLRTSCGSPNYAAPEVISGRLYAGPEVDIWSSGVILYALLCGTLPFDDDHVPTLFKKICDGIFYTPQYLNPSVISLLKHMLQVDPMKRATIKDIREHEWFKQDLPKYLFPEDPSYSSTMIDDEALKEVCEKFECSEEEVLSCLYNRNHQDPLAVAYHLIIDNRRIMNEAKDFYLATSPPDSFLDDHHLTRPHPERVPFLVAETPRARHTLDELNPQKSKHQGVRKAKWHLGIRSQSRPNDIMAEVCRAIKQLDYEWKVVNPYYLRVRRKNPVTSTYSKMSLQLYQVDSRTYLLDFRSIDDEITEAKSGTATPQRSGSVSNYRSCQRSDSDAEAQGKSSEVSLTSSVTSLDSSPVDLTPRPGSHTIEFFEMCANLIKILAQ

[12] = target: MAP kinase-activated protein kinase 5 (Homo sapiens, UniProt Q8IW41); assay type: functional;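 further: measured as one member of a kinome panel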
[13] = target: Dual specificity tyrosine-phosphorylation-regulated kinase 1B (Homo sapiens, UniProt Q9Y463); test: Navigating the Kinome. Panel member name: DYRK1B; assay type: functional
[14] = target: Mast/stem cell growth factor receptor Kit (Homo sapiens, UniProt P10721); assay type: functional;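 further: KIT entry within a kinase panel assay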
[15] = target: Cyclin-dependent kinase 9 (Homo sapiens, UniProt P50750); assay type: functional;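 further: value from the CDK9 entry of a kinome-spanning kinase panel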
[16] = target: Calcium/calmodulin-dependent protein kinase type 1 (Homo sapiens, UniProt Q14012); assay type: functional
[17] = target: Protein kinase C zeta type (Homo sapiens, UniProt Q05513); assay type: functional;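 further: measured as one member of a broad kinase profiling panel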
Sequence of Protein kinase C zeta type (Q05513 whole entry): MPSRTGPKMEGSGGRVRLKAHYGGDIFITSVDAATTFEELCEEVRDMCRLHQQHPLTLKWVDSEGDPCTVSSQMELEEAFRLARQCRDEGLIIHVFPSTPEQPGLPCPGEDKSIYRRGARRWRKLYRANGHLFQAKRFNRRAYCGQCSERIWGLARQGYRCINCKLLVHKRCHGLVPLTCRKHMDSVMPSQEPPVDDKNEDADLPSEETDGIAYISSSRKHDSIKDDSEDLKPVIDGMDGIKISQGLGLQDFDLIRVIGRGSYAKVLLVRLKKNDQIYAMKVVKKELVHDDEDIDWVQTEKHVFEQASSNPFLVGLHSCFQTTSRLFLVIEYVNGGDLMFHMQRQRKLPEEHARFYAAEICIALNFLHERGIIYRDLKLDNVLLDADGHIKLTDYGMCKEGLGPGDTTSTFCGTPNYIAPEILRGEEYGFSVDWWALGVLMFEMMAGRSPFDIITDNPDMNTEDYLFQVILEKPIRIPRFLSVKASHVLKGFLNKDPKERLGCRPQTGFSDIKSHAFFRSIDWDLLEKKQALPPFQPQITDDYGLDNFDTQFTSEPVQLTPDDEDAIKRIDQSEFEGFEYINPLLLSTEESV

[18] = target: Rho-associated protein kinase 1 (Homo sapiens, UniProt Q13464); assay type: functional;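 further: measured within a broad kinome-wide panel profiling many kinases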
[19] = target: Glycogen synthase kinase-3 beta (Homo sapiens, UniProt P49841); assay type: functional;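 further: value comes from a broad kinome profiling panel, with GSK3B as the panel member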
Sequence of Glycogen synthase kinase-3 beta (P49841 whole entry): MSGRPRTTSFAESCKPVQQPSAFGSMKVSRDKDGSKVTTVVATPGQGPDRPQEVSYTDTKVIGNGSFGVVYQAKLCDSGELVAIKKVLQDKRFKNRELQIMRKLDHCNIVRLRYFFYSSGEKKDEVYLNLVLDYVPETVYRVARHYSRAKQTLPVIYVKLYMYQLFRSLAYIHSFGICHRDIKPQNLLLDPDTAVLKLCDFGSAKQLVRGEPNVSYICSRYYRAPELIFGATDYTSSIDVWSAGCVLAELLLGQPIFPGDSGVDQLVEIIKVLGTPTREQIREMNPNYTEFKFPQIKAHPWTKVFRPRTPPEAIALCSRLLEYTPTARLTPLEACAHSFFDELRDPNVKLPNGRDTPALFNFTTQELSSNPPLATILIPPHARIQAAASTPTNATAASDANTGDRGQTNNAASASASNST

[20] = target: Intestinal-type alkaline phosphatase (Mus musculus, UniProt P24822); test: mouse intestinal alkaline phosphatase activators, dose response, biochemical, luminescence, uHTS hits (AID 488783); assay type: functional
Sequence of Intestinal-type alkaline phosphatase (P24822 whole entry): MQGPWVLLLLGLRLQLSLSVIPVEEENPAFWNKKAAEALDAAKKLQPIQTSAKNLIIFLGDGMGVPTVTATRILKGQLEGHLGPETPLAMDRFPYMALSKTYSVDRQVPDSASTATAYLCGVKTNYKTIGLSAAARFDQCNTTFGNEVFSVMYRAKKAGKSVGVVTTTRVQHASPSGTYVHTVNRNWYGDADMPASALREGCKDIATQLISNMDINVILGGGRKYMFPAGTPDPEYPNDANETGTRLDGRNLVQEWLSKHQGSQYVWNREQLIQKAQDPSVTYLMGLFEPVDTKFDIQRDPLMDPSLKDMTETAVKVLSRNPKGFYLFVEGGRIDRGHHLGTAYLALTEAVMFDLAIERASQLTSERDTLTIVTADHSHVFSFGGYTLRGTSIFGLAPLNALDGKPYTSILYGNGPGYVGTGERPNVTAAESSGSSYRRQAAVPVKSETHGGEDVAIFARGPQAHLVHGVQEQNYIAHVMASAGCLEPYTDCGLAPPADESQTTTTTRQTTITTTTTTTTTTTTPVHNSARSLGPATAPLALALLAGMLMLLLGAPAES

Aminopeptidase N = target: T2, Aminopeptidase N (Plasmodium falciparum FcB1/Columbia, UniProt O96935); test: malaria alanyl aminopeptidase activity blockers – biochemical, fluorogenic H-Leu-NHMec substrate, 1536-well (AID 1445); set-up: species or system Plasmodium falciparum 3D7, 3D7
T2 sequence (O96935 whole entry): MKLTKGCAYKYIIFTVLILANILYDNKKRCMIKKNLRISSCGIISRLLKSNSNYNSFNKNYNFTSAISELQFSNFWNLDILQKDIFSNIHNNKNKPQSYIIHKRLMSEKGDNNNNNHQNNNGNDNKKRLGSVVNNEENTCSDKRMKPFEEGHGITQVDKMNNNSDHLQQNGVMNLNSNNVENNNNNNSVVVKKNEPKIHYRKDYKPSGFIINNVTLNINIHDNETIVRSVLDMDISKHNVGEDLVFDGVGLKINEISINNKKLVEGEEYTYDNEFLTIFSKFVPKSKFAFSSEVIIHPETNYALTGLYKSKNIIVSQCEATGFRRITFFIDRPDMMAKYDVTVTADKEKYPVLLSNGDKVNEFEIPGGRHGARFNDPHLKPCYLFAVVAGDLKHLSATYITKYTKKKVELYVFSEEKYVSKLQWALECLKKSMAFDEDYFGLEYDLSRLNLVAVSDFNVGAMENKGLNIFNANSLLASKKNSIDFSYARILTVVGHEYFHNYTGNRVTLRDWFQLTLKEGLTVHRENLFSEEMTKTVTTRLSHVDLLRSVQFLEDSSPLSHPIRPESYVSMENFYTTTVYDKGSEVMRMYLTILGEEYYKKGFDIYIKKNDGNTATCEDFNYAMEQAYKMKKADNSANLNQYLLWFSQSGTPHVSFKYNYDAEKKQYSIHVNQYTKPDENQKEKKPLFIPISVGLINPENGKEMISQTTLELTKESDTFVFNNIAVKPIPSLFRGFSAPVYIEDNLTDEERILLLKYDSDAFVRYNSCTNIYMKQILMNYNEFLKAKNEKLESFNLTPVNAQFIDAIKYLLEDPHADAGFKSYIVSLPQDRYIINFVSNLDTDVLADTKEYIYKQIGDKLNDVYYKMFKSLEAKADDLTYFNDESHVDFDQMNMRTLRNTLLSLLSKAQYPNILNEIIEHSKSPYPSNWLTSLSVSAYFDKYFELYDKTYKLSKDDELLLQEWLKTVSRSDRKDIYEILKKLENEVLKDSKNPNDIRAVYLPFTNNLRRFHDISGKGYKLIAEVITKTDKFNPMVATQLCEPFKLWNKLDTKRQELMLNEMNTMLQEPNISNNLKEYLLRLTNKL

C=CCNC1=C(Cl)C(=O)c2ccccc2C1=O
AC50 [1]: > 70 µM (inactive)
AC50 [2]: 9.99 µM (active)
AC50 [3]: 9.99 µM (active)

CN(C)c1ccc(-c2nnc(-c3cccs3)o2)cc1
IC50 [4]: 3.58 µM (active)

CCOC(=O)C(C(=O)OCC)c1cc(Br)c2noc3c2c1C(=O)c1ccccc1-3
IC50 (Nonstructural protein 1): 35.5 µM (active)
EC50 [5]: 2.9 µM (active)

COc1ccc(C(=O)Nc2n[nH]c3ccc(-c4cn(Cc5ccccc5)nn4)cc23)cc1OC
Ki [6]: 2.51 µM (active)
Ki [7]: 0.0398 µM (active)
Ki [8]: 0.0316 µM (active)
Ki [9]: 0.0158 µM (active)
Ki [10]: 0.501 µM (active)
Ki [11]: 0.0631 µM (active)
Ki [12]: 1.26 µM (active)
Ki [13]: 0.0158 µM (active)
Ki [14]: > 1.26 µM (inactive)
Ki [15]: 0.501 µM (active)
Ki [16]: > 1.58 µM (inactive)
Ki [17]: > 7.94 µM (inactive)
Ki [18]: 1.26 µM (active)
Ki [19]: > 0.1 µM (inactive)

CS(=O)(=O)c1ccc2c(c1)SC1=NC(=O)/C(=C/c3ccc(O)c(O)c3)C(=N)N12
EC50 [20]: 6.35 µM (active)
IC50 (Aminopeptidase N): 51.2 µM (active)
